Measured values: publication PMC10867124, “Plant root associated chitinases: structures and functions” (Frontiers in Plant Science, 2024)

Assays:
[1] = molecular target: T1, ZmChi19A (Zea mays, UniProt B6TR38, E147A/E169A); test: 4-MU release fluorescence, relative activity; type: biochemical; settings: SUMO fusion; catalytic residues mutated
T1 construct: cDNA from maize root; signal peptide removed; N-terminal 10xHis-SUMO tag kept, TEV site; CBD, catalytic domain and flexible C-terminal domain; pET28b, E. coli; FPLC-purified
T1 sequence (B6TR38 26-334 E147A/E169A limits assumed): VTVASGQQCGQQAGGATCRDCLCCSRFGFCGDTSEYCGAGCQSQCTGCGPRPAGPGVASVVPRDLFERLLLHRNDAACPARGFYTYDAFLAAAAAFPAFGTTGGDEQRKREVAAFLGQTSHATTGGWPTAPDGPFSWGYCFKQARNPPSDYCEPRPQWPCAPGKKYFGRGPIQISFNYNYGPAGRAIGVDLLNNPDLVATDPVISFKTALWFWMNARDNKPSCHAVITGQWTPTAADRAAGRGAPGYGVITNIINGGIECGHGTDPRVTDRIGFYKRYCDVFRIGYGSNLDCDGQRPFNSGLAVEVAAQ

[2] = substrate: CC(=O)N[C@H]1[C@H](Oc2ccc3c(C)cc(=O)oc3c2)O[C@H](CO)[C@@H](O[C@@H]2O[C@H](CO)[C@@H](O[C@@H]3O[C@H](CO)[C@@H](O)[C@H](O)[C@H]3NC(C)=O)[C@H](O)[C@H]2NC(C)=O)[C@@H]1O; test: 4-MU release fluorescence, Langmuir fit; type: biochemical, Chitinophaga oryzae; settings: 50 °C, pH 8

CC(=O)N[C@H]1[C@H](Oc2ccc3c(C)cc(=O)oc3c2)O[C@H](CO)[C@@H](O[C@@H]2O[C@H](CO)[C@@H](O[C@@H]3O[C@H](CO)[C@@H](O)[C@H](O)[C@H]3NC(C)=O)[C@H](O)[C@H]2NC(C)=O)[C@@H]1O [4-MU-GlcNAc3]
4-MU release fluorescence, relative activity [1]: ZmChi19A(E147A,E169A) showed almost complete loss of activity

B1: CspCh18A (Chitinophaga oryzae) (protein)
chain: CKKDEARPDNPQTKSEPRVETVTKAGGKSVCYVEVNSNSLLNTGKYTLTTGGQQLFDIAIIFAANINYNTTTGKAVLYNNPNVTNVLVNKNTQIVPLQNKGMKVLLSILGNHQGAGFCNFTSRAAAKAFAQQLADTANYYGLDGIDFDDEYADYGNNGLPQPNDSSFVMLLDELRKLMPTKIISFYYYGPAASRLSWGGKKAGDFINYSWNAMYGTYSVPNVAGLTKANLGPAAVDIQATSQSTANWLATQTKNNGYGIYLWYNLTSTDKHVYFSGVSNILYGSSVTYTP
notes: signal peptide removed; TEV site, His tag; pET28a, E. coli; TIM-barrel catalytic domain, no CBD; FPLC-purified
Km [2]: 37 µM
